Results published in patent publication US20110053897A1 (IRM LLC, priority 2009, published 2011).
Where two headings read alike, the source gives them in different places.

How the values were obtained:
Syk kinase [1] = molecular target: T1, Syk kinase (Homo sapiens, UniProt P43405); assay: Syk kinase inhibition, Caliper LabChip off-chip mobility-shift kinase assay; format: biochemical; conditions: read-out: Syk Enzyme IC50
T1 construct: purchased
Procedure, shortened: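 Purified Syk pre-incubated 15 min with compound in 100 mM HEPES pH 7.5, 1 mM DTT, 10 mM MgCl2 or MnCl2, 0.002% Brij-35, then 1.5 μM fluorescein peptide and ATP at apparent KM added; 1–1.5 h at room temperature, 4% DMSO, EDTA stop. Microfluidic mobility-shift product/substrate conversion gave % inhibition; IC50 from 12-point series (10–0.00003 μM) by 4-parameter fit.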

Syk kinase [2] = molecular target: T1, Syk kinase; assay: Selectivity for Syk kinase over other kinases, receptors, enzymes and transporters; format: biochemical; conditions: qualitative statement, values not given
[3] = Pharmacokinetic parameters (bioavailability, metabolic stability, half life, compound exposure); conditions: qualitative statement, values not given

Structure (SMILES) | IC50 (Syk kinase [1]; Caliper LabChip assay) [nM] | IC50 (Syk kinase [1]) [nM] | also measured
CC(C)(C)Nc1nc(Nc2cc(C(C)(C)O)ncn2)cc2ccn(C3COC3)c(=O)c12 [compound 734] | 57 | – | selectivity for Syk kinase over other kinases, as well as other receptors, enzymes and transporters (Syk kinase [2]): improved Syk selectivity
CC(C)(C)Nc1nc(Nc2cnccn2)cc2ccn(C[C@@H](O)CO)c(=O)c12 [compound 668, (R)-8-(tert-butylamino)-2-(2,3-dihydroxypropyl)-6-(pyrazin-2-ylamino)-2,7-naphthyridin-1(2H)-one] | 7 | – | pharmacokinetic parameters, such as bioavailablity, enhanced metabolic stability, half life and compound exposure [3]: improved pharmacokinetic parameters
O=c1[nH]ccc2cc(-c3cncnc3)nc(Nc3ccc(CCn4cncn4)cc3)c12 [compound 34] | – | 180 | –
COc1cncc(-c2cc3cc[nH]c(=O)c3c(Nc3ccc(C4CCN(C(=O)C5(C)COC5)CC4)c(C)c3)n2)n1 [compound 75] | – | 53 | –
Cc1ccnc(Nc2cc3ccn(C(C)C)c(=O)c3c(N[C@H]3CC[C@@H](O)C3)n2)c1 [compound 977] | 20 | – | –
Cc1ccnc(Nc2cc3ccn(CCO)c(=O)c3c(N[C@H]3CCC[C@H]3O)n2)c1 (racemic) [compound 368] | – | 16 | –
CCn1ccc2cc(Nc3cnccn3)nc(N[C@@H]3CC[C@H](CO)C3)c2c1=O [compound 795] | 51 | – | –
Cn1ccc2cc(Nc3cnccn3)nc(NC(C)(C)C)c2c1=O [compound 466] | – | 120 | –
